Results on 5 compounds are retold here after patent US20210284621A1 (priority 2018, published 2021).

Experiment [1] concerns the target T1, CB1 receptor (Homo sapiens, UniProt P21554). The experiment is described as follows: CB1 competitive radioligand binding assay ([3H] SR141716A). The arrangement: expressed in transfected cells; host or cells: Chem-1 cells. The method, boiled down:
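Chem-1 cells expressing human recombinant CB1 incubated 90 min at 37° C with 2.0 nM [3H]SR141716A and compound at 0.5 μM (1% DMSO) in HEPES pH 7.4 buffer with MgCl2, CaCl2, 0.2% BSA. Read-out is % inhibition of radioligand binding.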

In a further experiment the test system is LPS-induced PBMCs. The experiment is described as follows: Inflammatory cytokine release from LPS-induced PBMCs (Luminex). Particulars: fold change from LPS-treated PBMCs, compounds 10 μM (DEX 1 μg/ml) 2 h, then LPS 0.1 μg/ml 24 h, negative = reduced; for IL-12 (p70) / L-31: OOR = out of standard curve range. It counts as cell-based, human. The protocol:
Compounds of the invention were assayed for their effect on inflammatory cytokine release from lipopolysaccharides (LPS)-induced PBMCs, isolated from a human blood sample, the results of which are provided in Table 7 as fold change. Exemplary methods for quantifying secretion of inflammatory cytokines in PBMCs are known in the art, for example, as described in Hailer et al., Infection and Immunity. 68(2):752-759 (2000); and Merlini et al., Frontiers in Immunology. 7:614 (2016); each of which is incorporated herein by reference with respect to methods for evaluating cytokine release in PBMCs.
In brief, human blood samples from healthy volunteers were collected and PBMCs were isolated. PBMCs were cultured and each compound was assayed in triplicate at a final concentration of 10 μM for 2 hours. 1 μg/ml dexamethasone (DEX) served as a positive control. LPS was added at a final concentration of 0.1 μg/ml and further incubated for 24 hours. At the end of the incubation, the supernatants were collected and the levels of a panel of secreted cytokines were measured by a Human Magnetic Luminex® assay (R&D). The results in Table 7 are presented as a fold change from LPS-treated PBMCs. Reduced levels are expressed by negative values. OOR denotes values that are out of the standard curve range for the specific cytokine and thus, could not be accurately measured. Cytotoxicity was also determined. Compounds with cytotoxicity ≥50% was considered cytotoxic. Baseline cytotoxicity of untreated PBMCs was 17% and all compounds presented in Table 7 induced cytotoxicity below 25%.

The target of experiment [2] is T2, CB2 receptor (Homo sapiens, UniProt P34972). The experiment is described as follows: cell-based. The arrangement: host or cells: cAMP Hunter cell lines. The conditions noted are these: PathHunter agonist mode; read-out: CB2 Activity (β-Arrestin). As to the method:
(§1) The PathHunter® β-Arrestin assay monitors the activation of a GPCR in a homogenous, non-imaging assay format using a technology developed by DiscoverX called Enzyme Fragment Complementation (EFC) with β-galactosidase (3-Gal) as the functional reporter. […] EA is fused to β-Arrestin and PK is fused to the GPCR of interest.
(§2) PathHunter cell lines were expanded from freezer stocks according to standard procedures. Cells were seeded in a total volume of 20 μL into white walled, 384-well microplates and incubated at 37° C. for the appropriate time prior to testing. For agonist activity determination, cells were incubated with sample to induce response. Intermediate dilution of sample stocks was performed to generate 5× sample in assay buffer. 5 μL of 5× sample was added to cells and incubated at 37° C. or room temperature for 90 to 180 minutes. Vehicle concentration was 1%. Assay signal was generated through a single addition of 12.5 or 15 μL (50% v/v) of PathHunter Detection reagent cocktail, followed by a one hour incubation at room temperature. Microplates were read following signal generation with a PerkinElmer Envision™ instrument for chemiluminescent signal detection. Compound activity was analyzed using CBIS data analysis suite (ChemInnovation, CA). For agonist assays, percentage activity was calculated using the following formula: % Activity=100%×(mean RLU of test sample− mean RLU of vehicle control)/(mean MAX control ligand− mean RLU of vehicle control).

The target in experiment [3] is T1, CB1 receptor. The experiment is described as follows: cAMP Assay #2: Hit Hunter cAMP assay, Gi-coupled agonist activity, CB1. It counts as cell-based. Further details: host or cells: PathHunter cell lines. The protocol:
(§3) Compounds of the invention were assayed in the Hit Hunter® cAMP assay to determine Gi-coupled agonist activity on the CB1 and CB2 receptors, the results of which are provided in Table 5.
(§4) The Hit Hunter® cAMP assay monitors the activation of a GPCR via Gi and […] secondary messenger signaling in a homogenous, non-imaging assay format using a technology developed by DiscoverX called Enzyme Fragment Complementation (EFC) with β-galactosidase (β-Gal) as the functional reporter. […] ED is fused to cAMP and in the assay competes with cAMP generated by cells for binding to a cAMP-specific antibody. Active β-Gal is formed by complementation of exogenous EA to any unbound ED cAMP. Active enzymes can then convert a chemiluminescent substrate, generating an output signal detectable on a standard microplate reader.
(§5) cAMP Hunter cell lines were expanded from freezer stocks according to standard procedures. Cells were seeded in a total volume of 20 μL into white walled, 384-well microplates and incubated at 37° C. for the appropriate time prior to testing. cAMP modulation was determined using the DiscoverX Hit Hunter cAMP XS+ assay. For Gi agonist activity determination, cells were incubated with sample in the presence of EC80 forskolin to induce response (20 μM and 25 μM in the CB1 and CB2 assays, respectively). Media was aspirated from cells and replaced with 15 μL 2:1 HBSS/10 mM HEPES:cAMP XS+Ab reagent.
(§6) Intermediate dilution of sample stocks was performed to generate 4× sample in assay buffer. 5 μL of 4× compound was added to cells and incubated at 37° C. or room temperature for 30 or 60 minutes. Final vehicle concentration was 1%. Assay signal was generated through incubation with 20 μL cAMP XS+ED/CL lysis cocktail for one hour at room temperature. Microplates were read following signal generation with a PerkinElmer Envision™ instrument for chemiluminescent signal detection. Compound activity was analyzed using CBIS data analysis suite (Chem Innovation, CA). For agonist assays, percentage activity was calculated using the following formula: % Activity=100%×(1−(mean RLU of test sample−mean RLU of Max control ligand)/(mean RLU of vehicle control−mean RLU of Max control ligand). Control ligand was the non-selective CB1/CB2 agonist CP55,940.
In general terms: cAMP levels reflect the balance of adenylyl cyclase and phosphodiesterase activity.

Experiment [4] has as its target T1, CB1 receptor. The experiment is described as follows: cell-based. Further details: host or cells: PathHunter cell lines. As to the method: as §1, §2
Experiment [5] concerns the target T2, CB2 receptor. The experiment is described as follows: cAMP Assay #2: Hit Hunter cAMP assay, Gi-coupled agonist activity, CB2. It is filed as cell-based. The arrangement: host or cells: cAMP Hunter cell lines. Particulars: for CB2 fold selectivity: Hit Hunter cAMP, CB1 EC50 / CB2 EC50. As to the method: as §3, §4, §5, §6
The target of experiment [6] is T2, CB2 receptor. The experiment in a line: CB2 competitive radioligand binding assay ([3H] WIN-55,212-2). Further details: expressed in transfected cells; host or cells: CHO-K1 cells. The conditions noted are these: for Fold Selectivity (CB1/CB2): Table 3, ratio of Ki CB1/CB2. The method, boiled down:
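CHO-K1 cells expressing human recombinant CB2 were incubated with compound (0.05 μM, 1% DMSO) and 2.4 nM [3H]WIN-55,212-2 in 20 mM HEPES pH 7.0, 0.5% BSA for 90 min at 37 °C. Percent inhibition of radioligand binding was reported.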

Where [7] appears, read: PathHunter agonist mode, read-out: CB1 Activity (β-Arrestin).

T1 sequence (P21554 whole entry): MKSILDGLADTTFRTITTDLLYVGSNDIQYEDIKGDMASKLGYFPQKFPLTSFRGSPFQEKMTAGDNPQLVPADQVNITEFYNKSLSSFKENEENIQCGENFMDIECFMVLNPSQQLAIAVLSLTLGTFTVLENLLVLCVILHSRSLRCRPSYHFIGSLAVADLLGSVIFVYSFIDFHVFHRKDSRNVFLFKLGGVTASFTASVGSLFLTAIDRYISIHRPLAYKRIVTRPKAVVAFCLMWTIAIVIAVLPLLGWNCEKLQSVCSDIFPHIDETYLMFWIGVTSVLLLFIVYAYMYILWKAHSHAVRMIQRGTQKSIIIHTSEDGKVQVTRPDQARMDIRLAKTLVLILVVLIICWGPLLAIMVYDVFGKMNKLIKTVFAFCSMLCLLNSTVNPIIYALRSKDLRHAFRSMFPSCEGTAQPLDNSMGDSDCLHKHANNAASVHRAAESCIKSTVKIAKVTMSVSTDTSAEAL
T2 sequence (P34972 whole entry, the tested form may be a part): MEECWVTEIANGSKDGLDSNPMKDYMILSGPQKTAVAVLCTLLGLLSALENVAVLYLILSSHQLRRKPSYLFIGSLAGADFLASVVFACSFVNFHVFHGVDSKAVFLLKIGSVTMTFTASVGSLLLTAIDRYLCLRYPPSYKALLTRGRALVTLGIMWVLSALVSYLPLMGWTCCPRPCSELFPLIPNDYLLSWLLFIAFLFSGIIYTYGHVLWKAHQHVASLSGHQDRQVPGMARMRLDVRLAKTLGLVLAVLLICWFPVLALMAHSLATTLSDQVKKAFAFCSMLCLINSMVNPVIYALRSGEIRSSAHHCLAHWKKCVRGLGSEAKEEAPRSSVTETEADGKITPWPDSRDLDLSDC

For `CCCCCCC(C)(C)c1cc(O)c2c(c1)OC(C)(C)[C@@H]1CC=C(C(=O)NC3(C(F)(F)F)CC3)C[C@@H]21` [Compound 99, (6aR,10aR)-1-hydroxy-N-(1-trifluoromethyl-cyclopropyl)-6,6-dimethyl-3-(2-methyloctan-2-yl)-6a,7,10,10a-tetrahydro-6H-benzo[c]chromene-9-carboxamide], at CB1 receptor [1], the affinity corresponds to a Ki of 8.9 nM. In the experiment with LPS-induced PBMCs, the IL17A came out at 1.2 fold change, the IL-1β was 1.2 fold change, the IL-4 is −1.4 fold change and the IL-6 is reported as −2.6 fold change. In the experiment with LPS-induced PBMCs, the IL-8 is recorded as −1.0 fold change, the IL-10 was −7.0 fold change, the MCP-1 is on record as −3.3 fold change and the TNFα is listed as −1.4 fold change. Further, in the experiment with LPS-induced PBMCs, the “IL-12 (p70)” value is −1.6 fold change and the L-31 is listed as −1.1 fold change. Further, the EC50 at CB2 receptor [2] was found to be 1.2 nM. Also, the EC50 at CB1 receptor [3] amounted to 19.1 nM. In addition, the EC50 on CB1 receptor [4] amounted to 32.5 nM. Further, at CB2 receptor [5], the EC50 stood at 1.3 nM and the CB2 fold selectivity came out at 14.9. For the same compound, at CB2 receptor [6], the Ki – broadly, a dissociation constant, usually derived from enzyme kinetics or from competition with a known ligand – was found to be 2 nM and the “Fold Selectivity (CB1/CB2)” value is given as 4.5.
Compound `CCCCC(C)(C)c1cc(O)c2c(c1)OC(C)(C)[C@@H]1CC=C(C(=O)O)C[C@@H]21` [Compound 109] showed an inhibitory constant (Ki) on CB1 receptor [1] of more than 3000 nM. In the experiment with LPS-induced PBMCs, this compound showed an IL17A of 1.2 fold change, an IL-1β of −3.3 fold change, an IL-4 of −1.5 fold change and an IL-6 of −1.4 fold change. In the experiment on LPS-induced PBMCs, this compound came in with an IL-8 of −1.0 fold change, an IL-10 of −1.3 fold change, an MCP-1 of −5.0 fold change and a TNFα of −1.3 fold change. Moreover, in the experiment with LPS-induced PBMCs, the “IL-12 (p70)” value is reported as −1.6 fold change and the L-31 is −1.5 fold change. Besides, the EC50 at CB2 receptor [2] was found to be 58.1 nM. The compound also displayed an EC50 at CB1 receptor [3] of 1220 nM. The EC50 on CB1 receptor [4] (setting [7]) was more than 3000 nM. On CB2 receptor [5], the EC50 turned out to be 148 nM and the CB2 fold selectivity was 8.3. Also, the Ki at CB2 receptor [6] is more than 3000 nM.
At CB1 receptor [1], `CCCCCCC(C)(C)c1cc(O)c2c(c1)OC(C)(C)[C@@H]1CC=C(C(=O)NC3CC(F)(F)C3)C[C@@H]21` [Compound 89, (6aR,10aR)-N-(3,3-difluorocyclobutyl)-1-hydroxy-6,6-dimethyl-3-(2-methyloctan-2-yl)-6a,7,10,10a-tetrahydro-6H-benzo[c]chromene-9-carboxamide] came in with a Ki of 62 nM. Further, in the experiment with LPS-induced PBMCs, the IL17A is listed as −14.0 fold change, the IL-1β is on record as −4.8 fold change, the IL-4 is −3.8 fold change and the IL-6 is −237.0 fold change. Besides, in the experiment with LPS-induced PBMCs, the IL-8 is −4.2 fold change, the IL-10 is reported as −960.1 fold change, the MCP-1 was −143.8 fold change and the TNFα is −35.6 fold change. In addition, at CB2 receptor [2], the EC50 turned out to be 1.9 nM. Moreover, at CB1 receptor [3], the EC50 was 43.6 nM. This compound showed an EC50 on CB1 receptor [4] of 33 nM. At CB2 receptor [5], this compound gave an EC50 of 1.3 nM and a CB2 fold selectivity of 34.6. For the same compound, at CB2 receptor [6], the Ki amounted to 4.3 nM and the “Fold Selectivity (CB1/CB2)” value came to 14.4.
Turning to `CC(C)(CCCCCCO)c1cc(O)c2c(c1)OC(C)(C)[C@@H]1CC=C(C(=O)O)C[C@@H]21` [Compound 57, (6aR,10aR)-1-hydroxy-3-(8-hydroxy-2-methyloctan-2-yl)-6,6-dimethyl-6a,7,10,10a-tetrahydro-6H-benzo[c]chromene-9-carboxylic acid], the figures for the Ki on CB1 receptor [1] and on CB2 receptor [6] were 162 nM and 56.3 nM, respectively. The EC50 is 22 nM on CB2 receptor [2], 92.1 nM on CB1 receptor [3], 290 nM on CB1 receptor [4] (setting [7]) and 39.7 nM on CB2 receptor [5]. The same compound displayed a CB2 fold selectivity at CB2 receptor [5] of 2.3. Further, at CB2 receptor [6], the “Fold Selectivity (CB1/CB2)” value is listed as 2.9.
`CCCCCCC(C)(C)c1cc(O)c2c(c1)OC(C)(C)[C@@H]1CC=C(C(=O)N[C@H]3C[C@H](O)C3)C[C@@H]21` [Compound 45, (6aR,10aR)-1-hydroxy-N-((1R,3R)-3-hydroxycyclobutyl)-6,6-dimethyl-3-(2-methyloctan-2-yl)-6a,7,10,10a-tetrahydro-6H-benzo[c]chromene-9-carboxamide]: the Ki on CB1 receptor [1] came out at 144 nM; on CB2 receptor [6], 10.1 nM. For the same compound, the EC50 turned out to be 6 nM at CB2 receptor [2], 274 nM at CB1 receptor [3], 4980 nM at CB1 receptor [4] and 12 nM on CB2 receptor [5]. On CB2 receptor [5], the CB2 fold selectivity was 22.9. Besides, on CB2 receptor [6], the “Fold Selectivity (CB1/CB2)” value stood at 14.3.
